Source: ChEMBL document CHEMBL1154828, “Dimeric guaianolides and sesquiterpenoids from Artemisia anomala” (J Nat Prod, 2010)
Active and inactive are the calls of the source. The calls are words filed in the database; no cut-off is given here.

How the values were obtained:
HCT-8 = assay: Cytotoxicity activity against human HCT8 cells after 72 hrs by MTT assay; type: functional, cell-based; conditions: HCT-8, 72 h
BGC-823 = assay: Cytotoxicity activity against human BGC823 cells after 72 hrs by MTT assay; type: functional, cell-based; conditions: BGC-823, 72 h
A549 = assay: Cytotoxicity activity against human A549 cells after 72 hrs by MTT assay; type: functional, cell-based
A2780 = assay: Cytotoxicity activity against human A2780 cells after 72 hrs by MTT assay; type: functional, cell-based; conditions: A2780, 72 h
Bel-7402 = assay: Cytotoxicity activity against human Bel7402 cells after 72 hrs by MTT assay; type: functional, cell-based; conditions: Bel-7402, 72 h
[1] = target: T1, Prostaglandin G/H synthase 2 (Homo sapiens) (UniProt P35354); assay: Inhibition of COX2 at 50 uM
T1 sequence (whole entry): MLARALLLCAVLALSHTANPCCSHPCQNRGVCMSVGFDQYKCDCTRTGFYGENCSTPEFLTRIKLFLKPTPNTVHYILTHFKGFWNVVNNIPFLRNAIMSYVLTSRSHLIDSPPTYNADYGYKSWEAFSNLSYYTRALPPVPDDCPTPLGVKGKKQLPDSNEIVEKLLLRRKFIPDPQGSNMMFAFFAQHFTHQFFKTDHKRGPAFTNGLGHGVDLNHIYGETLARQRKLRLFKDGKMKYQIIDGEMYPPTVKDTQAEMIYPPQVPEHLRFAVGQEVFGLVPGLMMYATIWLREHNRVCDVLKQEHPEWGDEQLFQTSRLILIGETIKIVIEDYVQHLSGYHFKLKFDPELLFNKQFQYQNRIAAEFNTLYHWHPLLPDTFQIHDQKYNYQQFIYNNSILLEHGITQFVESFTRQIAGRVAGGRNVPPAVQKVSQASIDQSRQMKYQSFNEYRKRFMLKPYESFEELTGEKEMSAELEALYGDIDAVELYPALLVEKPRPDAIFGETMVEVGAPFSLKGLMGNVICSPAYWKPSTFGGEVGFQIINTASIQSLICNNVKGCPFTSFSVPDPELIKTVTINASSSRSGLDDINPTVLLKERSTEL

Compound | IC50 (HCT-8) [nM] | IC50 (BGC-823) [µM] | Activity (A549) | IC50 (A2780) [nM] | IC50 (Bel-7402) [nM] | inhibition [1] [%]
C=C1C(=O)O[C@@H]2[C@@H]3C4(C=C[C@@]3(C)C3(C4)C(=O)O[C@@H]4[C@H]5C(C)=CC(=O)C5=C(C)C[C@H](O)[C@H]43)[C@@](C)(OC(C)=O)CC[C@@H]12 (stereo partly drawn) [ARTANOMALIDE D] | 1900 | 8.5 | inactive | 1800 | 3000 | 99.5
C=C(C(=O)O)C(CCC(C)=O)CC1=C(C)C(=O)CC1=O (stereo not drawn) | – | – | – | – | – | 98.2
C=C1C(=O)O[C@H]2[C@H]1CC[C@](C)(O)[C@]13O[C@H]1[C@H](Cl)[C@](C)(O)[C@H]23 | – | – | – | – | – | 98.4
